Patent US9969710B2, “Heteroaryl compounds as IRAK inhibitors and uses thereof” (Merck Patent GmbH, priority 2015, dated 2018)

Tests used:
[1] = test system: TLR7 induced IL-6 secretion in human mononuclear cells (PBMC's); assay: TLR7 induced IL-6 in human PBMC's; format: cell-based; details: TLR7 specific ligand 2 uM overnight, IL-6 AlphaLISA
Procedure: TLR7 Induced IL-6 in Human PBMC's
Human PBMC assay was used as one of the functional assaya to monitor the activity of IRAK1 and IRAK4 small molecule inhibitors on TLR7 induced IL-6 secretion in human mononuclear cells (PBMC's). Human PBMCs were prepared from buffy coats (whole blood enriched with leukocytes and platelets) obtained from healthy volunteers used either fresh or frozen are plated in assay media (RPMI+2% P/S/L-glu+10% HI-FBS) and pre-treated with compounds in DMSO/media (range of concentrations from 25 uM to 0.4 nM) or controls (0.25% DMSO) for 30 minutes at 37° C. in assay media. Following pre-treatment with IRAK1 and IRAK4 inhibitors, PBMC's were stimulated with TLR7 specific ligand (2 uM) overnight (16-18 hrs) at 37° C. After incubation supernatant was transferred to 384 well PE AlphaPlate-384 (6005350) and IL-6 is quantified using Perkin Elmer IL-6 Alpha LISA kit (AL223C). Plates were read on an Envision® plate reader with Alpha Technology®.

[2] = biological target: T1, IRAK1 (Homo sapiens, UniProt P51617); assay: IRAK1 enzymatic assay (ADP-Glo luminescence); format: biochemical; details: human recombinant His-TEV-IRAK1 (194-712), ATP 1 μM; read-out: IRAK 1 IC50
T1 construct: His-TEV-IRAK1 (194-712); His (N); TEV cleavage site (N)
Procedure: IRAK1 is a human purified recombinant enzyme (His-TEV-IRAK1 (194-712))
In this assay, IRAK1 hydrolyses ATP and autophosphorylates. Measurement of IRAK-1 inhibition is performed in 384-well format based on luminescence assay (ADP-Glo™ Kinase Assay from Promega). Purified human recombinant IRAK1 ([…]) and serial diluted compounds in DMSO (range of concentration from 10 μM to 0.5 nM) or controls (1% DMSO) are incubated for 15 minutes at RT in assay buffer containing 50 mM Hepes pH 7.0, Fatty acid-free BSA 0.1%, Dithiothreitol (DTT) 2 mM, MgCl2 10 mM, EGTA 0.5 mM, Triton X-100 0.01%. The kinase reaction is then initiated by the addition of ATP at a concentration of 1 μM. After 2 hours of incubation at RT, the reaction is stopped and the unconsumed ATP depleted by the addition of ADP-Glo™ Reagent according to supplier instructions. After 40 minutes of incubation at RT, the Kinase Detection Reagent is then added to the assay plate according to supplier instructions. After 20 minutes of incubation at RT, the luminescence signal is measured with a luminometer (PerkinElmer Envision or equivalent reader).

[3] = biological target: T2, IRAK4 (Homo sapiens, UniProt Q9NWZ3); assay: IRAK4 enzymatic assay (ADP-Glo luminescence); format: biochemical; details: human recombinant His-TEV-IRAK4 (1-460), STK1-biotin peptide substrate
T2 construct: His-TEV-IRAK4 (1-460); His (N); TEV cleavage site (N)
T2 sequence (Q9NWZ3 1-460): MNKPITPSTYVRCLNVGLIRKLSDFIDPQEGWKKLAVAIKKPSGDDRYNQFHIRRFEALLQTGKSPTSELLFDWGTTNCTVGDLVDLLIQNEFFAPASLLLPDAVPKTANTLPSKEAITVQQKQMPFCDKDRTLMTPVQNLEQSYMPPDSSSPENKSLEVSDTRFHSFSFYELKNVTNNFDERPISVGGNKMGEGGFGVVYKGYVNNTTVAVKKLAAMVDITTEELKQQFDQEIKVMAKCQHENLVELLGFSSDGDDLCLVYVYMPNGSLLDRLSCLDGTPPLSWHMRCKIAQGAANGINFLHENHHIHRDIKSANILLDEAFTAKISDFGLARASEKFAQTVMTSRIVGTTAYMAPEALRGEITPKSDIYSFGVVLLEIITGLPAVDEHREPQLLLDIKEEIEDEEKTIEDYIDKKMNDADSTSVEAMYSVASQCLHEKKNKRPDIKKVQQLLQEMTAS
Procedure: IRAK4 is a human purified recombinant enzyme (His-TEV-IRAK4 (1-460)).
In this assay, IRAK4 hydrolyses ATP, autophosphorylates and phosphorylates a Serine/Threonine generic peptidic substrate (STK: 61ST1BLC from CisBio International). Measurement of IRAK-4 inhibition is performed in 384-well format based on a luminescence assay (ADP-Glo™ Kinase Assay from Promega). Purified human recombinant IRAK4 ([…]) and serial diluted compounds in DMSO (range of concentration from 10 μM to 0.5 nM) or controls (1% DMSO) are incubated for 15 minutes at RT in assay buffer containing 50 mM Hepes pH 7.0, Fatty acid-free BSA 0.1%, Dithiothreitol (DTT) 2 mM, MgCl2 10 mM, EGTA 0.5 mM, Triton X-100 0.01%, MnCl2 5 mM. The kinase reaction is then initiated by the addition of ATP ([…]) and the peptidic substrate STK1-biotin peptide (300 nM). After 2 hours of incubation at RT, the reaction is stopped and the unconsumed ATP depleted by the addition of ADP-Glo™ Reagent according to supplier instructions. After 40 minutes of incubation at RT, the Kinase Detection Reagent is then added to the assay plate according to supplier instructions. After 20 minutes of incubation at RT, the luminescence signal is measured with a plate-reading luminometer (PerkinElmer Envision or equivalent reader).

T1 sequence (P51617 194-712): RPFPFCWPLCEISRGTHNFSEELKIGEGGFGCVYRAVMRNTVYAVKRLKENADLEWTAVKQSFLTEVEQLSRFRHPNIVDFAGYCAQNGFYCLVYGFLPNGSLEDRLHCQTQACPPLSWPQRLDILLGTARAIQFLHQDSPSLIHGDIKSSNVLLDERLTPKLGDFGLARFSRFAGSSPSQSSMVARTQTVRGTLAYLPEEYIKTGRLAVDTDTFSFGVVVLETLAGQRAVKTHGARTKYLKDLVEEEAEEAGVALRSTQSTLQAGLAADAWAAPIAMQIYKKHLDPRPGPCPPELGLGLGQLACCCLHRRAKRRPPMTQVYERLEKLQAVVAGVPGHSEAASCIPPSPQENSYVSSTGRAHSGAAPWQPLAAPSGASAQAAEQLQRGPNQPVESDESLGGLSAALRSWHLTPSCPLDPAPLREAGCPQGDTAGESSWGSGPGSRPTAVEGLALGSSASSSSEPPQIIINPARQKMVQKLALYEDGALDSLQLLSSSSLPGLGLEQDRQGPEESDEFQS

SMILES	IC50 [2]	IC50 [3]	IC50 ([1]; Homo sapiens, PBMC)	IC50 [1]
C=CCn1/c(=N/C(=O)c2cccc(C(F)(F)F)c2)[nH]c2cc(C3CCN(C)C3=O)ccc21 (stereo not drawn) [Compound 19, N-[1-Allyl-5-(1-methyl-2-oxo-pyrrolidin-3-yl)-1,3-dihydro-benzoimidazol-(2E)-ylidene]-3-trifluoromethyl-benzamide]	100 to 1000 nM	≤ 100 nM	100 to 1000 nM	–
CN1CCCC(c2ccc3c(c2)[nH]/c(=N\C(=O)c2cccc(C(F)(F)F)c2)n3CCC(O)CO)C1=O (single isomer, unassigned) [Compound 22b]	≤ 100 nM	≤ 100 nM	–	≤ 100 nM
CN1CCCC(c2ccc3c(c2)[nH]/c(=N\C(=O)c2cccc(C(F)(F)F)c2)n3C[C@](C)(F)CO)C1=O (stereo partly drawn) [Compound 16, (E)-N-(1-((S)-2-fluoro-3-hydroxy-2-methylpropyl)-5-(1-methyl-2-oxopiperidin-3-yl)-1H-benzo[d]imidazol-2(3H)-ylidene)-3-(trifluoromethyl)benzamide]	100 to 1000 nM	≤ 100 nM	100 to 1000 nM	–
CN1CCC[C@@H](c2ccc3c(c2)[nH]/c(=N\C(=O)c2cccc(C(F)F)c2)n3C[C@](C)(F)CO)C1=O (single isomer, unassigned) [Compound 3b]	1000 to 10000 nM	≤ 100 nM	100 to 1000 nM	–
CN1CCC(c2ccc3c(c2)[nH]/c(=N\C(=O)c2cccc(C(F)(F)F)c2)n3CC(O)CO)C1=O (single isomer, unassigned) [Compound 20b]	100 to 1000 nM	≤ 100 nM	–	1000 to 10000 nM
CN1CCC(c2ccc3c(c2)[nH]/c(=N\C(=O)c2cccc(C(F)(F)F)c2)n3CCC(O)CO)C1=O (stereo not drawn) [Compound 21, N-[1-(3,4-Dihydroxy-butyl)-5-(1-methyl-2-oxo-pyrrolidin-3-yl)-1,3-dihydro-benzoimidazol-(2E)-ylidene]-3-trifluoromethyl-benzamide]	100 to 1000 nM	≤ 100 nM	≤ 100 nM	–
CN1CCC(c2ccc3c(c2)[nH]/c(=N\C(=O)c2cccc(C(F)(F)F)c2)n3CCC(O)CO)C1=O (single isomer, unassigned) [Compound 21b]	100 to 1000 nM	≤ 100 nM	–	100 to 1000 nM
CN1CCCC(c2ccc3c(c2)[nH]/c(=N\C(=O)c2cccc(C(F)(F)F)c2)n3CCC(O)CO)C1=O (single isomer, unassigned) [Compound 22a]	100 to 1000 nM	≤ 100 nM	–	≤ 100 nM
CN1CCC(c2ccc3c(c2)[nH]/c(=N\C(=O)c2cccc(C(F)(F)F)c2)n3CCC(O)CO)C1=O (single isomer, unassigned) [Compound 21a]	100 to 1000 nM	≤ 100 nM	100 to 1000 nM	–
CN1CCC(c2ccc3c(c2)[nH]/c(=N\C(=O)c2cccc(C(F)(F)F)c2)n3CC(O)CO)C1=O (stereo not drawn) [Compound 20, N-[1-(2,3-Dihydroxy-propyl)-5-(1-methyl-2-oxo-pyrrolidin-3-yl)-1,3-dihydro-benzoimidazol-(2E)-ylidene]-3-trifluoromethyl-benzamide]	100 to 1000 nM	≤ 100 nM	100 to 1000 nM	–

More lines, main results first:

IC50 [2]	IC50 [3]	SMILES	IC50 ([1]; Homo sapiens, PBMC)	IC50 [1]
100 to 1000 nM	≤ 100 nM	CN1CCC(C)(c2ccc3c(c2)nc(NC(=O)c2cccc(C(F)(F)F)c2)n3CCCO)C1=O (single isomer, unassigned) [Compound 29b]	–	100 to 1000 nM
100 to 1000 nM	≤ 100 nM	CN1CCC[C@H](c2ccc3c(c2)[nH]/c(=N\C(=O)c2cccc(C(F)(F)F)c2)n3CCCO)C1=O [Compound 1b, (R,E)-N-(1-(3-hydroxypropyl)-5-(1-methyl-2-oxopiperidin-3-yl)-1H-benzo[d]imidazol-2(3H)-ylidene)-3-(trifluoromethyl)benzamide]	1000 to 10000 nM	–
100 to 1000 nM	≤ 100 nM	CN1CC[C@H](c2ccc3c(c2)nc(NC(=O)c2cccc(C(F)(F)F)c2)n3CCCO)C1=O [Compound 23b, N-[1-(3-hydroxypropyl)-5-[(3R)-1-methyl-2-oxopyrrolidin-3-yl]-1H-1,3-benzodiazol-2-yl]-3-(trifluoromethyl) benzamide]	100 to 1000 nM	–
1000 to 10000 nM	≤ 100 nM	CN1CCC(C)(c2ccc3c(c2)nc(NC(=O)c2cccc(C(F)F)c2)n3CCCO)C1=O (single isomer, unassigned) [Compound 30a]	1000 to 10000 nM	–
1000 to 10000 nM	≤ 100 nM	CN1CCC(C)(c2ccc3c(c2)nc(NC(=O)c2cccc(C(F)(F)F)c2)n3CCCO)C1=O (single isomer, unassigned) [Compound 29a]	–	1000 to 10000 nM
≤ 100 nM	≤ 100 nM	CN1CC(c2ccc3c(c2)nc(NC(=O)c2cccc(C(F)F)c2)n3CCCO)C(C)(C)C1=O (single isomer, unassigned) [Compound 27a]	100 to 1000 nM	–
1000 to 10000 nM	≤ 100 nM	CN1C(=O)CC[C@@]1(C)c1ccc2c(c1)nc(NC(=O)c1cccc(C(F)F)c1)n2CCCO [Compound 31b, 3-(difluoromethyl)-N-{5-[(2S)-1,2-dimethyl-5-oxopyrrolidin-2-yl]-1-(3-hydroxypropyl)-1H-1,3-benzodiazol-2-yl}benzamide]	1000 to 10000 nM	–
≤ 100 nM	≤ 100 nM	CN1CC(c2ccc3c(c2)nc(NC(=O)c2cccc(C(F)(F)F)c2)n3CCCO)C(C)(C)C1=O (single isomer, unassigned) [Compound 25a]	100 to 1000 nM	–
≤ 100 nM	≤ 100 nM	CN1CCCC(c2ccc3c(c2)[nH]/c(=N\C(=O)c2cccc(C(F)(F)F)c2)n3CCCO)C1=O (stereo not drawn) [Compound 1, (E)-N-(1-(3-hydroxypropyl)-5-(1-methyl-2-oxopiperidin-3-yl)-1H-benzo[d]imidazol-2(3H)-ylidene)-3-(trifluoromethyl)benzamide]	≤ 100 nM	–
100 to 1000 nM	≤ 100 nM	CN1C(=O)CCC1(C)c1ccc2c(c1)nc(NC(=O)c1cccc(C(F)F)c1)n2CCCO (stereo not drawn) [Compound 31, 3-Difluoromethyl-N-[5-(1,2-dimethyl-5-oxo-pyrrolidin-2-yl)-1-(3-hydroxy-propyl)-1H-benzoimidazol-2-yl]-benzamide]	1000 to 10000 nM	–
100 to 1000 nM	≤ 100 nM	CN1CCC(c2ccc3c(c2)nc(NC(=O)c2cccc(C(F)(F)F)c2)n3CCCO)C1=O (stereo not drawn) [Compound 23, N-[1-(3-hydroxypropyl)-5-(1-methyl-2-oxopyrrolidin-3-yl)-1H-1,3-benzodiazol-2-yl]-3-(trifluoromethyl)benzamide]	≤ 100 nM	–
